Experiment [1] relates to autophagy pathway proteins. Nature of the experiment: Immunoblotting of autophagy pathway proteins in primary astrocytes. The experiment is classed as cell-based, C57BL/6J mice. The procedure: Primary astrocytes were cultured from C57BL/6J (Jax:000664) mice pups with the approval of Institutional Animal Ethics Committee (IAEC) of CSIR-Indian Institute of Integrative Medicine (IIIM), Jammu, under IAEC number 287/80/2/2022 and 305/81/8/2022. The astrocytes were isolated from the brain of 3–4 days-old mice pups and were grown in 10% FBS-supplemented DMEM media. Briefly, pups were sacrificed through decapitation and sterilized with 70% ethanol. Brain was exposed and isolated. Olfactory lobes and cerebellum were removed with fine blade. The cortical region separated was collected in incomplete media (media without fetal bovine serum) and cut into small pieces. After that, these cortices were incubated at 37°C in 0.25% trypsin for 30 min, with gentle shaking after every 10 min. Trypsin activity was neutralized with complete media and cells were collected using a 70-micron cell strainer followed by centrifugation at 300 g for 5 min. The pellet was dissolved in fresh media and cells were grown in cell culture flasks and were maintained at 37°C in a CO2 incubator. Microglia and oligodendrocytes were separated from the underlying astrocyte layer after 6-7 days by shaking the flask for 6 h at 240 rpm. Cultures astrocytes within 2-4 passage were used for all the experiments.
Cellular lysates were prepared using radio immuno precipitation assay (RIPA) buffer for protein analysis. Briefly, the cell pellet was dissolved in RIPA buffer containing sodium fluoride, sodium orthovanadate, phenyl methyl sulfonyl fluoride (PMSF) and 1% protease inhibitor cocktail for 1 h with vertexing sample every 15 min. The supernatant was collected after high-speed centrifugation of samples for 20 min at 4°C. For analysis of proteins in mice hippocampi, the hippocampi isolated from mice brains was immediately washed with saline and stored in liquid nitrogen. For lysates preparation, tissue was homogenized in RIPA buffer substituted with sodium fluoride, sodium orthovanadate, phenyl methyl sulfonyl fluoride and 1% protease inhibitor cocktail. Total protein was measured using Bradford assay. Proteins were separated using SDS-PAGE and then transferred from gel to PVDF membrane. The protein of interest was labeled with a specific primary antibody overnight at 4°C. Further, the blot was incubated with corresponding HRP-conjugated secondary antibody for 1 h at room temperature. The band were visualized in the Genaxy Chemi Doc imaging system (Make: Syngene, Maryland, USA; Model: G: BOX, XT-4). Densitometry analysis of all the immunoblots was performed by using ImageJ software. Band density of proteins was normalized with β-actin. The phosphorylated proteins were normalized with their total forms.
Background: In western blotting, separated proteins are transferred to a membrane and probed.

The test system of a further experiment is 5x-FAD mice. Nature of the experiment: Radial arm maze test. The following applies: for Latency to first entry to baited arm: 5x-FAD mice. The experiment is classed as in vivo. The text has this: Hemizygous 5x-FAD transgenic mice (B6.Cg-Tg(APPSwFlLon, PSEN1*M146L*L286V) 6799Vas/Mmjax; MMRRC Strain: 034848-JAX) on congenic C57BL/6J genetic background were used for experiments. The 5x-FAD mice were genotyped using APP-specific qPCR probes to detect the transgene as per the protocol of Jackson Laboratory. Six months old 5x-FAD mice were randomly divided into three groups (n = 5), based on their body weights, with three males and two females in each group. We used mixed-cohort of males and females for our study to exclude any gender biased effect of IBC. Also, AD symptoms are more pronounced in females than in males ([Aggarwal and Mielke, 2023]), making it possible that males and females respond differently to the drug and treatment. Considering this, it is important to show effect of IBC on both sexes. At this age, Aβ deposition and neuroinflammation has already progressed in these mice. We have used IBC as a curative drug rather than a preventive drug. Prior to the initiation of the study, all the animals were acclimatized for 1 week under standard laboratory conditions; animals were drug naive with no prior procedures performed. All testing were performed from 1 to 4 p.m. IBC was orally (OD) given to two groups at different doses, 25 mg/kg (1% DMSO, 2% Tween 80, 19% PEG200, and 78% distilled water) and 50 mg/kg (1% DMSO, 5% Tween 80, 19% PEG200% and 75% distilled water) using oral gavage. 5x-FAD control mice were administered with vehicle (1% DMSO, 5% Tween 80, 19% PEG200% and 75% distilled water). For behavioral and Immunohistochemistry assays, experimenters were blinded to animal identity while carrying out the procedures.
To check the effect of IBC on the behavior of 5x-FAD mice, open field test (OFT), rotarod (Make; Ugo Basile, rota-rod for mice 7650) and radial arm maze (Make; Ugo Basile) tests were performed. All behavioral assays and testing were performed by an experimenter blinded to the treatment groups. To check the effect of IBC on motor coordination and balancing rotarod test was performed. After acclimatizing mice with rotarod for 5 days, their latency to fall was calculated on the day of analysis. The given final values are the mean of three independent attempts of each mouse. OFT was performed to assess exploratory and locomotor activity in a white box (45 × 60 cm). Distance traveled, speed, time spent in corner and center zones and mobile episodes were recorded through an automated video tracking system using AnyMaze software. To check the effect of IBC on the spatial memory of mice, the eight-armed radial arm maze test was done. The mice were acclimatized to the maze for 5 days before the experiment. Each mouse was trained to navigate the maze for five consecutive days. The mouse was placed on the end of one arm (entry arm). For spatial memory assessment, a food reward (100 mg of butter cookies) was placed in the selected arm, which was considered as […]. The movement of mice was tracked with the help of automated AnyMaze software connected with a tracking camera and various memory retention parameters were assessed.

Setting [2] is: 25 and 50 mg/kg oral, vs 5x-FAD control.

As to `CC(C)=CCc1c(O)ccc(C(=O)/C=C/c2ccc(O)cc2)c1O` [IBC, isobavachalcone], in experiment [1] (24 h), the ATG5 level entry is listed as “upregulated”, the ATG7 level result is “upregulated”, the BECN1 expression entry is “did not show any change” and the FIP200 phosphorylation entry is on record as “increased phosphorylation”. Moreover, in experiment [1] (24 h), the MTOR level result was “no change”, the ULK1 phosphorylation entry was “phosphorylated at Ser 317” and the “pLKB1 (Ser 428) level” value is “no change”. In experiment [1] (24 h, 5, 10 and 20 μM), the “AMPK phosphorylation (Thr 172)” value is given as “concentration-dependent increase”, the BCL2 level result was “marked decline”, the LC3B-II level result is “significant increase” and the “pCAMKK2 (Ser 511) level” value is given as “significantly upregulated”. Also, the SQSTM1 level result in experiment [1] (24 h, 10 and 20 μM) is recorded as “reducing levels”. The “Latency to first entry to baited arm” value with 5x-FAD mice (25 mg/kg oral) turned out to be 16.58 s. Moreover, the “Latency to first entry to baited arm” value with 5x-FAD mice (50 mg/kg oral) was determined as 14.36 s. Besides, in the experiment on 5x-FAD mice (setting [2]), the Baited arm time entry is given as “significantly longer time”, the “Distance traveled to find the baited arm” value is listed as “significantly less distance” and the “Entries to non-baited arm” value is listed as “smaller number of entries”.

These data come from PMC11965660, “Isobavachalcone ameliorates Alzheimer disease pathology by autophagy-mediated clearance of amyloid beta and inhibition of NLRP3 inflammasome in primary astrocytes and 5x-FAD mice” (Frontiers in Pharmacology, 2025).
